Square brackets hold non-standard residues; d marks the D form. Peptide text beside a SMILES is read from it. Nle = CCCC[C@H](N)C(=O)O
System: rat pituitary cells
Assay: Bioassay of hGRF analogs: stimulation of growth hormone release in rat pituitary cells in tissue culture
Format: cell-based
Conditions: for Dose Needed to Release 2.01 μg/ml of GH: 2.01 μg/ml = GH released at the ED50 of hGRF; for Dose Needed to Release 2.01 μg/ml of GH / Relative Maximum Activity (% of hGRF): from ALLFIT curves; for Potency: (ED50 of hGRF)/(Dose required to give same response as ED50 of hGRF)
Text: The assay for biological activity, which is based on the ability to stimulate release of growth hormone in rat pituitary cells in tissue culture, has been described in detail (Culler, M. D.; Kenjo, T.: Obara, N.; Arimuar, A., Stimulation of cAMP. Accumulation by Human Pancreatic GH-Releasing Factor(1-44). Am. J. Physiol. 1984, 247 (Endocrinol.Metab. 10). E609-E615.
ALLFIT, the 4-parameter logistic curve fitting program available from the Biomedical Computer Technology Information Center, Vanderbilt Medical Center, Nashville Tenn., was used to determine ED50 and maximal stimulated values from the data. In several instances, the amount of GH released reached a maximum value and decreased with further increasing doses of the hGRF analogs. To simplify the data analysis, these values were not used in the calculations. The calculated maximal responses, the doses of the analog required to release the amount of GH released at the ED50 of the standard (hGRF) and the potencies of the analogs relative to hGRF, are given in Table 2. Generally all novel analogs were fully active and were able to stimulate the release of growth hormone with maximal values of GH release being within 80% of the value for natural hGRF.

SMILES	Dose Needed to Release 2.01 μg/ml of GH	Potency	Relative Maximum Activity (% of hGRF)	Potency (Asp^8, Nle^27 ])
CCCC[C@H](NC(=O)[C@@H](NC(=O)[C@H](CC(N)=O)NC(=O)[C@H](CCC(N)=O)NC(=O)[C@H](CC(C)C)NC(=O)[C@H](CC(C)C)NC(=O)[C@H](CCCCN)NC(=O)[C@H](CCCNC(=N)N)NC(=O)[C@H](C)NC(=O)[C@H](CO)NC(=O)[C@H](CC(C)C)NC(=O)[C@H](CCC(N)=O)NC(=O)CNC(=O)[C@H](CC(C)C)NC(=O)[C@@H](NC(=O)[C@H](CCCCN)NC(=O)[C@H](CCCNC(=N)N)NC(=O)[C@H](Cc1ccc(O)cc1)NC(=O)[C@H](CO)NC(=O)[C@H](CC(=O)O)NC(=O)[C@@H](NC(=O)[C@H](Cc1ccccc1)NC(=O)[C@@H](NC(=O)[C@H](C)NC(=O)[C@H](CC(=O)O)NC(=O)[C@H](C)NC(=O)[C@@H](N)Cc1ccc(O)cc1)[C@@H](C)CC)[C@@H](C)O)C(C)C)[C@@H](C)CC)C(=O)N[C@@H](CO)C(=O)N[C@@H](CCCNC(=N)N)C(=O)N[C@@H](CCC(N)=O)C(=O)N[C@@H](CCC(N)=O)C(N)=O [[Asp^8, Asn^25, Nle^27]-hGRF(1-31)--NH2, [Asp^8,Asn^25,Nle^27]-hGRF(1-31)--NH2] (H-YADAIFTDSYRKVLGQLSARKLLQNI[Nle]SRQQ-NH2)	0.42 nM	76%	87 % of hGRF	–
CCCC[C@H](NC(=O)[C@@H](NC(=O)[C@H](CC(N)=O)NC(=O)[C@H](CCC(N)=O)NC(=O)[C@H](CC(C)C)NC(=O)[C@H](CC(C)C)NC(=O)[C@H](CCCCN)NC(=O)[C@H](CCCNC(=N)N)NC(=O)[C@H](C)NC(=O)[C@H](CO)NC(=O)[C@H](CC(C)C)NC(=O)[C@H](CCC(N)=O)NC(=O)CNC(=O)[C@H](CC(C)C)NC(=O)[C@@H](NC(=O)[C@H](CCCCN)NC(=O)[C@H](CCCNC(=N)N)NC(=O)[C@H](Cc1ccc(O)cc1)NC(=O)[C@H](CO)NC(=O)[C@H](CC(N)=O)NC(=O)[C@@H](NC(=O)[C@H](Cc1ccccc1)NC(=O)[C@@H](NC(=O)[C@H](C)NC(=O)[C@H](CC(=O)O)NC(=O)[C@H](C)NC(=O)[C@@H](N)Cc1ccc(O)cc1)[C@@H](C)CC)[C@@H](C)O)C(C)C)[C@@H](C)CC)C(=O)N[C@@H](CO)C(=O)N[C@@H](CCCNC(=N)N)C(=O)N[C@@H](CCC(N)=O)C(=O)N[C@@H](CCC(N)=O)C(N)=O [[Asn^25, Nle^27]-hGRF(1-31)--NH2, [Asn^25,Nle^27]-hGRF(1-31)--NH2] (H-YADAIFTNSYRKVLGQLSARKLLQNI[Nle]SRQQ-NH2)	0.12 nM	267%	96 % of hGRF	–
CCCC[C@H](NC(=O)[C@@H](NC(=O)[C@H](CC(=O)O)NC(=O)[C@H](CCC(N)=O)NC(=O)[C@H](CC(C)C)NC(=O)[C@H](CC(C)C)NC(=O)[C@H](CCCCN)NC(=O)[C@H](CCCNC(=N)N)NC(=O)[C@H](C)NC(=O)[C@H](CO)NC(=O)[C@H](CC(C)C)NC(=O)[C@H](CCC(N)=O)NC(=O)CNC(=O)[C@H](CC(C)C)NC(=O)[C@@H](NC(=O)[C@H](CCCCN)NC(=O)[C@H](CCCNC(=N)N)NC(=O)[C@H](Cc1ccc(O)cc1)NC(=O)[C@H](CO)NC(=O)[C@H](CC(=O)O)NC(=O)[C@@H](NC(=O)[C@H](Cc1ccccc1)NC(=O)[C@@H](NC(=O)[C@H](C)NC(=O)[C@H](CC(=O)O)NC(=O)[C@H](C)NC(=O)[C@@H](N)Cc1ccc(O)cc1)[C@@H](C)CC)[C@@H](C)O)C(C)C)[C@@H](C)CC)C(=O)N[C@@H](CO)C(=O)N[C@@H](CCCNC(=N)N)C(=O)N[C@@H](CCC(N)=O)C(=O)N[C@@H](CCC(N)=O)C(N)=O [[Asp^8, Nle^27]-hGRF(1-31)--NH2, [Asp^8,Nle^27]-hGRF(1-31)--NH2] (H-YADAIFTDSYRKVLGQLSARKLLQDI[Nle]SRQQ-NH2)	0.39 nM	82%	109 % of hGRF	–
CCCC[C@H](NC(=O)[C@@H](NC(=O)[C@H](CC(=O)O)NC(=O)[C@H](CCC(N)=O)NC(=O)[C@H](CC(C)C)NC(=O)[C@H](CC(C)C)NC(=O)[C@H](CCCCN)NC(=O)[C@H](CCCNC(=N)N)NC(=O)[C@H](C)NC(=O)[C@H](CO)NC(=O)[C@H](CC(C)C)NC(=O)[C@H](CCC(N)=O)NC(=O)CNC(=O)[C@H](CC(C)C)NC(=O)[C@@H](NC(=O)[C@H](CCCCN)NC(=O)[C@H](CCCNC(=N)N)NC(=O)[C@H](Cc1ccc(O)cc1)NC(=O)[C@H](CO)NC(=O)[C@H](CC(=O)O)NC(=O)[C@@H](NC(=O)[C@H](Cc1ccccc1)NC(=O)[C@@H](NC(=O)[C@H](C)NC(=O)[C@H](CC(N)=O)NC(=O)[C@H](C)NC(=O)[C@@H](N)Cc1ccc(O)cc1)[C@@H](C)CC)[C@@H](C)O)C(C)C)[C@@H](C)CC)C(=O)N[C@@H](CO)C(=O)N[C@@H](CCCNC(=N)N)C(=O)N[C@@H](CCC(N)=O)C(=O)N[C@@H](CCC(N)=O)C(N)=O [[Asn^3, Asp^8, Nle^27]-hGRF(1-31)--NH2, [Asn^3,Asp^8,Nle^27]-hGRF(1-31)--NH2] (H-YANAIFTDSYRKVLGQLSARKLLQDI[Nle]SRQQ-NH2)	6.74 nM	3%	107 % of hGRF	5%
CCCC[C@H](NC(=O)[C@@H](NC(=O)[C@H](CC(=O)O)NC(=O)[C@H](CCC(N)=O)NC(=O)[C@H](CC(C)C)NC(=O)[C@H](CC(C)C)NC(=O)[C@H](CCCCN)NC(=O)[C@H](CCCNC(=N)N)NC(=O)[C@H](C)NC(=O)[C@H](CO)NC(=O)[C@H](CC(C)C)NC(=O)[C@H](CCC(N)=O)NC(=O)CNC(=O)[C@H](CC(C)C)NC(=O)[C@@H](NC(=O)[C@H](CCCCN)NC(=O)[C@H](CCCNC(=N)N)NC(=O)[C@H](Cc1ccc(O)cc1)NC(=O)[C@H](CO)NC(=O)[C@H](CC(N)=O)NC(=O)[C@@H](NC(=O)[C@H](Cc1ccccc1)NC(=O)[C@@H](NC(=O)[C@H](C)NC(=O)[C@H](CC(N)=O)NC(=O)[C@H](C)NC(=O)[C@@H](N)Cc1ccc(O)cc1)[C@@H](C)CC)[C@@H](C)O)C(C)C)[C@@H](C)CC)C(=O)N[C@@H](CO)C(=O)N[C@@H](CCCNC(=N)N)C(=O)N[C@@H](CCC(N)=O)C(=O)N[C@@H](CCC(N)=O)C(N)=O [[Asn^3, Nle^27]-hGRF(1-31)--NH2] (H-YANAIFTNSYRKVLGQLSARKLLQDI[Nle]SRQQ-NH2)	0.58 nM	55%	93 % of hGRF	–
